These results are taken from ChEMBL document CHEMBL3769376, “Discovery of I-BRD9, a Selective Cell Active Chemical Probe for Bromodomain Containing Protein 9 Inhibition” (J Med Chem, 2016).

Calls of active or inactive are those of the source. No cut-off for these calls is given here.

The target in data set [1] is T1, Bromodomain-containing protein 9 (Homo sapiens, UniProt Q9H8M2).
T1 sequence (Q9H8M2 whole entry): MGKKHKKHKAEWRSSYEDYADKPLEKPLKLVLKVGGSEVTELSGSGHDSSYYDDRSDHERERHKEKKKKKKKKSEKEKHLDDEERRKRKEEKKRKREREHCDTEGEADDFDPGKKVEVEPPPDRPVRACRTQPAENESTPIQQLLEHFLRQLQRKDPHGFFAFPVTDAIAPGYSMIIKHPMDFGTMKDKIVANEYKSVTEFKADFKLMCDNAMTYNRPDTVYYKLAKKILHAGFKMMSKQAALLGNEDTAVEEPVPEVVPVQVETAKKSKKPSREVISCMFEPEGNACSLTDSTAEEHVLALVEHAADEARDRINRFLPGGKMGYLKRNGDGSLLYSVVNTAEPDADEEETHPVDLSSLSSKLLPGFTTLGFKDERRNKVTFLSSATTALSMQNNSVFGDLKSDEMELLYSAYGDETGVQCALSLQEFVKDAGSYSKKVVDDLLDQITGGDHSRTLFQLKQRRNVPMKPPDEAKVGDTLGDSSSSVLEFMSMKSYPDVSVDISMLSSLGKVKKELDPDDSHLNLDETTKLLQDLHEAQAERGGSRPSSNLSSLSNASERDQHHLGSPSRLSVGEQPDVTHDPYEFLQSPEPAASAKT
Kind of data set: Inhibition of BRD9 (unknown origin) incubated in dark for 30 mins by TR-FRET assay. Background: Time-resolved FRET reads energy transfer from a long-lived donor to a nearby acceptor.

Data set [2] has as its target Bromodomain-containing protein 4 (Homo sapiens, UniProt O60885). Kind of data set: Inhibition of BRD4 bromodomain 1 (unknown origin) incubated in dark for 30 mins by TR-FRET assay.
The nature of data set [3]: Dissociation constant, pKa of the compound. The data set is classed as physicochemical.
The target in data set [4] is T2, Bromodomain-containing protein 9 (Homo sapiens) (UniProt Q9H8M2).
T2 sequence (whole entry): T1 sequence (Q9H8M2 whole entry)
The experiment in a line: Inhibition of BRD9 in human Kasumi-1 cells assessed as downregulation of CLEC1 gene at 1 uM after 6 hrs by qPCR method. The data set is classed as cell-based.

Data set [5] addresses T2, Bromodomain-containing protein 9 (Homo sapiens). Kind of data set: Inhibition of BRD9 in human Kasumi-1 cells assessed as downregulation of DUSP6 gene at 1 uM after 6 hrs by qPCR method. The class given is cell-based.
Data set [6] has the same target. The experiment in a line: Inhibition of BRD9 in human Kasumi-1 cells assessed as downregulation of FES gene at 1 uM after 6 hrs by qPCR method. The data set is classed as cell-based.
For data set [7] the target is unchanged. The experiment in a line: Inhibition of BRD9 in human Kasumi-1 cells assessed as downregulation of SAMSN1 gene at 1 uM after 6 hrs by qPCR method. The class given is cell-based. In general terms: In qPCR the cycle at which signal appears reflects the starting amount.

One may read the IC50 as the midpoint of a concentration-inhibition curve. The low end stands for greater potency, the high end for weaker potency. As to `COc1cccc(-c2cn(C)c(=O)c3cc(C(=N)NC4CCS(=O)(=O)CC4)sc23)c1`, the half-inhibitory concentration (IC50) is 12.6 nM in data set [1] and 794 nM in data set [2].

For `COc1ccc(-c2cn(C)c(=O)c3cc(C(=O)N4CCN(S(C)(=O)=O)CC4)sc23)cc1OC`, the values for the IC50 in data set [1] and in data set [2] were 200 nM and 20000 nM, respectively.

With `COc1ccc(-c2cn(C)c(=O)c3cc(C(=O)N(C)C)sc23)cc1OC`, the figures for the IC50 in data set [1] and in data set [2] were 5010 nM and 12600 nM, respectively.

In the case of `CNC(=O)c1cc2c(=O)n(C)cc(-c3ccc(OC)c(OC)c3)c2s1`, the half-inhibitory concentration (IC50) in data set [1] is 126 nM; in data set [2], 200 nM.

In general, pKa refers to the negative logarithm of the acid dissociation constant. `Cn1cc(-c2cccc(C(F)(F)F)c2)c2sc(C(=N)NC3CCS(=O)(=O)CC3)cc2c1=O`: the IC50 in data set [1] is 15.8 nM; in data set [2] it was 2510 nM. The compound also displayed a pKa in data set [3] of 8.4.

In the case of `COc1ccc(-c2cn(C)c(=O)c3cc(C(=O)N4CCCCC4)sc23)cc1OC`, the half-inhibitory concentration (IC50) in data set [1] is 3980 nM; in data set [2], 15800 nM.

Take `CN(C)c1cccc(-c2cn(C)c(=O)c3cc(C(=N)NC4CCS(=O)(=O)CC4)sc23)c1`: the IC50 in data set [1] was 10 nM; in data set [2], 501 nM.

For `Cn1cc(-c2ccccc2)c2sc(C(=N)NC3CCS(=O)(=O)CC3)cc2c1=O`, the IC50 is 39.8 nM in data set [1] and 1580 nM in data set [2].

Turning to `COc1cc2c(cc1-c1c(C)noc1C)ncc1[nH]c(=O)n([C@H](C)c3ccccn3)c12`, the inhibition result in data set [4], in data set [5], in data set [6] and in data set [7] was “inactive” in each case.

Turning to `CNC(=N)c1cc2c(=O)n(C)cc(-c3ccc(OC)c(OC)c3)c2s1`, the half-inhibitory concentration (IC50) in data set [1] is 79.4 nM; in data set [2] it was 1260 nM.

Turning to `CC(C)n1cc(-c2cccc(C(F)(F)F)c2)c2sc(C(=N)NC3CCS(=O)(=O)CC3)cc2c1=O`, the IC50 in data set [1] is 3160 nM; in data set [2], more than 50100 nM.

Regarding `COc1ccc(-c2cn(C)c(=O)c3cc(C(=N)NC4CCS(=O)(=O)CC4)sc23)cc1OC`, the half-maximal inhibitory concentration (IC50) in data set [1] was 7.94 nM; in data set [2], 398 nM.

`Cn1cc(-c2cccc(C#N)c2)c2sc(C(=N)NC3CCS(=O)(=O)CC3)cc2c1=O`: the concentration for half-maximal inhibition (IC50) is 39.8 nM in data set [1] and 2510 nM in data set [2].

On to `COc1ccc(-c2cn(C)c(=O)c3cc(C(=O)NC4CCS(=O)(=O)CC4)sc23)cc1OC`, for which the concentration for half-maximal inhibition (IC50) is 12.6 nM in data set [1] and 50.1 nM in data set [2].
